The subject of one series is LLC murine tumor cells. As to the kind of experiment: In vivo antitumor activity, LLC tumor allograft, alone or with chemotherapy. The conditions noted are these: for antitumor effect: LLC tumor in C57Bl6 mice, single agent or in combination with chemotherapy.
Series [1] in a line: Steady state plasma concentration from subcutaneous osmotic pumps.

As to `OC(CC1c2ccccc2-c2cncn21)C1CCCCC1` (stereo not drawn) [Compound 1304, 1-cyclohexyl-2-(5H-imidazo[5,1-a]isoindol-5-yl)ethanol], the antitumor effect entry in the series on LLC murine tumor cells was “significant antitumor effect”. The “long term survival fraction, mice tumor free after 60 days” value in the series with LLC murine tumor cells (LLC tumor, after 60 days) is 70-80%. The “median survival time (log rank test)” value in the series on LLC murine tumor cells (LLC tumor, single agent or in combination with cyclophosphamide) is “statistically significant difference in median survival time”. Moreover, in the series with LLC murine tumor cells (LLC tumor, single agent or in combination with cyclophosphamide 100 mg/kg i.p.), the “average tumor volume over time” value is “very sensitive to the effects of treatment”. Further, the “steady state plasma concentration of drug” value in series [1] (s.c. osmotic pumps, 200 uL of 30 mg/mL solution, 1 uL per hour for 8 days) was 0.5 to 3 µM.
As for `OC(CC1c2c(F)cccc2-c2cncn21)C1CCCCC1` (stereo not drawn) [Compound 1357, 1-cyclohexyl-2-(6-fluoro-5H-imidazo[5,1-a]isoindol-5-yl)ethanol], in the series with LLC murine tumor cells, the antitumor effect result is “significant antitumor effect”. Besides, in the series with LLC murine tumor cells (LLC tumor, single agent), the “median survival time vs vehicle (log rank test)” value is recorded as “statistically significant difference in median survival time”. For the same molecule, the “average tumor volume over time vs vehicle (fitted exponential growth curves)” value in the series with LLC murine tumor cells (LLC tumor, single agent, osmotic pumps, p<0.0001) is given as “statistically significant differences”. In addition, the “steady state plasma concentration of drug” value in series [1] (mouse, in vivo) was 0.5 to 3 µM.

(Values after patent US10233190B2, “IDO inhibitors” (NewLink Genetics Corporation, priority 2011, dated 2019).)
